Measurements reported in patent publication US8785478B2, “Viral polymerase inhibitors” (Biota Scientific Management Pty Ltd, priority 2012, dated 2014).
Values after ≈ are worked out from the molar mass of the structure shown. Where two headings read alike, the source gives them in different places.

How the values were obtained:
[1] = system: subgenomic genotype 2a (JFH-1) replicon cell line; test: HCV replicon assay, genotype 2a (Renilla luciferase); assay type: cell-based; conditions: Hepatitis C virus; genotype 2a replicon; read-out: G2a (EC50 μM)
Protocol: (§1) A genotype 1b (Con 1) subgenomic replicon cell line based on Blight et al., Science 2000 290: 1972-1974, modified to express a Renilla luciferase reporter gene was used to assess antiviral activity of test compounds. Cell cultures were maintained in a sub-confluent state in DMEM with glutamine, 10% heat-inactivated foetal bovine serum (FBS) and G418 (Geneticin®).
(§2) For assay, cells were seeded at a density of 7000 cells/well into 96 well tissue culture trays in culture media lacking G418. Compounds were tested in a three fold dilution series, for example starting from 50 uM. After 72 hours incubation at 37° C. and 5% CO2, Renilla luciferase activity was quantified via the Promega Renilla Luciferase or Renilla-Glo™ Luciferase Assay Systems (Promega corporation. The same method was employed for replicon assays using subgenomic genotype 1a (H77) and 2a (JFH-1) replicon cell lines with a seeding cell density of 5000 cells/well for the 2a cell lines.
(§3) The compound concentration that reduced luciferase activity by 50% (EC50) was calculated using non-linear regression.

[2] = system: subgenomic genotype 1a (H77) replicon cell line; test: HCV replicon assay, genotype 1a (Renilla luciferase); assay type: cell-based; conditions: Hepatitis C virus; genotype 1a replicon; read-out: G1a (EC50 μM)
Protocol: as §1, §2, §3

[3] = biological target: T1, 1b (BK) NS5BΔ21 (Hepatitis C virus genotype 1b, UniProt P26663); test: HCV Polymerase Inhibition Assay; assay type: biochemical
T1 construct: 100 nM, 1b (BK) NS5BΔ21
Protocol: HCV polymerase reactions were carried out using a modified method of Howe et al., Antimicrobial Agents and Chemotherapy 2004 48(12): 4813-4821. Reactions contained a final concentration of, 0.5% DMSO, 100 nM, 1b (BK) NS5BΔ21, 20 mM Tris-HCl pH 7.5, 5 mM MgCl2, 5 mM MnCl2, 3 mM DTT, 0.05% BSA, 0.2 U/μL RNasin, 10 μg/mL Poly(rC) template, GTP (at Km) and 0.05 μCi/μL ^33P-GTP in a total reaction volume of 50 μL. Compounds were tested in a three fold dilution series, for example starting from 50 μM. Reactions were initiated with the addition of GTP and terminated after 90 min with 50 μL ice cold 0.2 M EDTA. Terminated reactions were transferred to DEAE 96-well filter plates, unincorporated nucleotides washed from the filters and 50 μL scintillation fluid added prior to reading on a scintillation counter. The compound concentration that reduced ^33P-GTP incorporation by 50% (IC50) was calculated using non-linear regression.

[4] = system: genotype 1b (Con 1) subgenomic replicon cell line; test: HCV replicon assay, genotype 1b (Renilla luciferase); assay type: cell-based; conditions: Hepatitis C virus, genotype 1b replicon
Protocol: as §1, §2, §3

[5] = Cytotoxicity analysis (MTT); assay type: cell-based; conditions: genotype 1b replicon cells, three days, read-out: G1b (CC50 μM)
Protocol: Cytotoxicity of compounds against genotype 1b replicon cells was determined via metabolism of the vital dye 3-(4,5-dimethylthiaxol-2-yl)-2,5-diphenyltetrazolium bromide (MTT, for example see Watanabe et al., Journal of Virological Methods 1994 48:257-265). Plates were prepared as described for the HCV Replicon assay and cytotoxicity of the test article was evaluated after three days. MTT was added to assay plates followed by three hour incubation at 37° C. Wells were aspirated to dryness and the formazan dye dissolved by the addition of isopropanol. Absorbance values were read at 540/690 nm). The compound concentration that reduced cell viability by 50% (CC50) was calculated using non-linear regression.

[6] = Aqueous solubility (laser nephelometry); assay type: physicochemical; conditions: for solubility at 30 min: aqueous assay buffer with 1% DMSO, kinetic from dmso stock, 30 minute incubation at 25° C.
Protocol: Test compounds prepared in DMSO were screened in duplicate over a range of concentrations (1.6-100 ug/mL) in different aqueous media (for example a pH6.5 buffers which are relevant to the stomach and upper regions of the small intestine and therefore important when predicting the amount of drug likely to be in solution following oral administration). Test compounds were serially diluted in 100% DMSO ranging from 10-0.16 mg/mL. These titrated DMSO stocks were then further diluted 1:100 with assay buffer and added to test plates (UV Star Griener 384 well plates), maintaining the DMSO concentration at 1%.

[7] = 1b polymerase IC50 (μM) range, genotype 1b NS5B, 33P-GTP incorporation
[8] = NS5B G1b (IC50 μM), genotype 1b polymerase
[9] = 72 hours, read-out: genotype 1b EC50 (μM) range
[10] = aqueous buffer, pH 6.5, 1% DMSO, read-out: Solubility pH 6.5
[11] = simulated gastric fluid, pH 2, 1% DMSO, read-out: Solubility pH 2

T1 sequence (P26663 2420-2989, stated change not applied): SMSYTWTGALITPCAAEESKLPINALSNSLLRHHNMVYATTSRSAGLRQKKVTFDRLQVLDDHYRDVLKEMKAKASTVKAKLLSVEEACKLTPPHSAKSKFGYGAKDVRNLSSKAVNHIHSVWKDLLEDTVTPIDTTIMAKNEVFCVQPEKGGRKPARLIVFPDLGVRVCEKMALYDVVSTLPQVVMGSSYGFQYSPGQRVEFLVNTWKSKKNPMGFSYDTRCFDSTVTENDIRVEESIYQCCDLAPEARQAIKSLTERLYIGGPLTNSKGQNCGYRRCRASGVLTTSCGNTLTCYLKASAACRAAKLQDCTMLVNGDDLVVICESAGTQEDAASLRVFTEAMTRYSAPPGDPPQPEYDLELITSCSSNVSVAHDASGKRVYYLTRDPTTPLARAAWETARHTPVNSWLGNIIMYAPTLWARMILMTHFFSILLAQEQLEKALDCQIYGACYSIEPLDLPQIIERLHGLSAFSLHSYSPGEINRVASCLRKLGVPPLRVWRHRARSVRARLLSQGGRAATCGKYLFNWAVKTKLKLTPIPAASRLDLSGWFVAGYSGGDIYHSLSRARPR

CCN(c1cc2nn(-c3ccc(Cl)cn3)c(C(=O)NC)c2cc1C1CC1)S(C)(=O)=O [Compound 8, 2-(5-chloropyridin-2-yl)-5-cyclopropyl-6-[ethyl(methylsulfonyl)amino]-N-methyl-2H-indazole-3-carboxamide]
EC50 [1]: 0.04 µM
EC50 [2]: 0.016 µM
IC50 [3, 7]: < 0.1 µM
IC50 [3, 8]: 0.091 µM
EC50 [4, 9]: < 0.1 µM
EC50 ([4]; read-out: G1b (EC50 μM)): 0.009 µM
CC50 at 3 days [5]: > 50 µM

CNC(=O)c1c2cc(C3CC3)c(N(C)S(C)(=O)=O)cc2nn1-c1ncc(C)s1 [Compound 13, 5-cyclopropyl-N-methyl-6-[methyl(methylsulfonyl)amino]-2-(5-methylthiazol-2-yl)indazole-3-carboxamide]
EC50 [4, 9]: 0.1 to 0.49 µM

CCN(c1cc2nn(-c3ccc(C)cn3)c(C(=O)NC)c2cc1C1CC1)S(C)(=O)=O [Compound 5, 5-cyclopropyl-6-[ethyl(methylsulfonyl)amino]-N-methyl-2-(5-methylpyridin-2-yl)-2H-indazole-3-carboxamide]
EC50 [1]: 0.147 µM
EC50 [2]: 0.068 µM
IC50 [3, 7]: 0.1 to 0.49 µM
IC50 [3, 8]: 0.283 µM
times more potent than Compound A ([3]; in each of the HCV assays tested (polymerase, replicon)): at least 10 times
solubility at 30 min [6, 10]: > 100 µg/mL
solubility at 30 min [6, 11]: > 100 µg/mL
solubility in words ([6]; at both pH2 and pH 6.5): good solubility
EC50 [4, 9]: < 0.1 µM
EC50 ([4]; read-out: G1b (EC50 μM)): 0.03 µM
CC50 at 3 days [5]: > 50 µM

CNC(=O)c1c2cc(C3CC3)c(N(CCC3COC3)S(C)(=O)=O)cc2nn1-c1ccc(C)cn1 [Compound 4, 5-cyclopropyl-N-methyl-2-(5-methylpyridin-2-yl)-6-{(methylsulfonyl)[2-(oxetan-3-yl)ethyl]amino}-2H-indazole-3-carboxamide]
EC50 [1]: 0.293 µM
EC50 [2]: 0.035 µM
IC50 [3, 7]: 0.1 to 0.49 µM
IC50 [3, 8]: 0.388 µM
EC50 [4, 9]: < 0.1 µM
EC50 ([4]; read-out: G1b (EC50 μM)): 0.054 µM
CC50 at 3 days [5]: > 50 µM

CNC(=O)c1c2cc(C3CC3)c(N(CCO)S(C)(=O)=O)cc2nn1-c1ccc(C)cn1 [Compound 2, 5-cyclopropyl-6-[(2-hydroxyethyl)(methylsulfonyl)amino]-N-methyl-2-(5-methylpyridin-2-yl)-2H-indazole-3-carboxamide]
IC50 [3, 7]: 1 to 10 µM
solubility at 30 min [6, 10]: > 100 µg/mL
solubility at 30 min [6, 11]: 50 to 100 µg/mL (≈ 113 to 225 µM)
EC50 [4, 9]: 0.1 to 0.49 µM

CNC(=O)c1c2cc(C3CC3)c(N(CCC3CN(C(C)=O)C3)S(C)(=O)=O)cc2nn1-c1ccc(C)cn1 [Compound 17, 6-[2-(1-acetylazetidin-3-yl)ethyl-methylsulfonyl-amino]-5-cyclopropyl-N-methyl-2-(5-methyl-2-pyridyl)indazole-3-carboxamide]
IC50 [3, 7]: 0.5 to 0.99 µM
solubility at 30 min [6, 10]: > 100 µg/mL
solubility at 30 min [6, 11]: 50 to 100 µg/mL (≈ 95.3 to 191 µM)
EC50 [4, 9]: 0.1 to 0.49 µM

CNC(=O)c1c2cc(C3CC3)c(N(C)S(C)(=O)=O)cc2nn1-c1ccccn1 [Compound 14, 5-cyclopropyl-N-methyl-6-[methyl(methylsulfonyl)amino]-2-(2-pyridyl)indazole-3-carboxamide]
EC50 [4, 9]: 0.1 to 0.49 µM

CNC(=O)c1c2cc(C3CC3)c(N(C)S(C)(=O)=O)cc2nn1-c1ccc(C)cn1 [Compound 6, 5-cyclopropyl-N-methyl-6-[methyl(methylsulfonyl)amino]-2-(5-methylpyridin-2-yl)-2H-indazole-3-carboxamide]
EC50 [1]: 0.024 µM
EC50 [2]: 0.044 µM
IC50 [3, 7]: 0.1 to 0.49 µM
IC50 [3, 8]: 0.31 µM
EC50 [4, 9]: < 0.1 µM
EC50 ([4]; read-out: G1b (EC50 μM)): 0.004 µM
CC50 at 3 days [5]: > 50 µM

CNC(=O)c1c2cc(C3CC3)c(N(CC(F)F)S(C)(=O)=O)cc2nn1-c1ccc(C)cn1 [Compound 3, 5-cyclopropyl-6-[(2,2-difluoroethyl)(methylsulfonyl)amino]-N-methyl-2-(5-methylpyridin-2-yl)-2H-indazole-3-carboxamide]
IC50 [3, 7]: 0.5 to 0.99 µM
solubility at 30 min [6, 10]: 50 to 100 µg/mL (≈ 108 to 216 µM)
solubility at 30 min [6, 11]: 50 to 100 µg/mL (≈ 108 to 216 µM)
EC50 [4, 9]: < 0.1 µM

CNC(=O)c1c2cc(C3CC3)c(N(C)S(C)(=O)=O)cc2nn1-c1ccc(Cl)cn1 [Compound 9, 2-(5-chloropyridin-2-yl)-5-cyclopropyl-N-methyl-6-[methyl(methylsulfonyl)amino]-2H-indazole-3-carboxamide]
EC50 [1]: 0.055 µM
EC50 [2]: 0.031 µM
IC50 [3, 7]: < 0.1 µM
IC50 [3, 8]: 0.054 µM
EC50 [4, 9]: < 0.1 µM
EC50 ([4]; read-out: G1b (EC50 μM)): 0.008 µM
CC50 at 3 days [5]: > 50 µM

CNC(=O)c1c2cc(C3CC3)c(N(CCC3COC3)S(C)(=O)=O)cc2nn1-c1ccc(Cl)cn1 [Compound 19, 2-(5-chloro-2-pyridyl)-5-cyclopropyl-N-methyl-6-[methylsulfonyl-[2-(oxetan-3-yl)ethyl]amino]indazole-3-carboxamide]
EC50 [1]: 0.019 µM
EC50 [2]: 0.011 µM
IC50 [3, 7]: 0.1 to 0.49 µM
IC50 [3, 8]: 0.131 µM
EC50 [4, 9]: < 0.1 µM
EC50 ([4]; read-out: G1b (EC50 μM)): 0.021 µM
CC50 at 3 days [5]: > 50 µM

CNC(=O)c1c2cc(C3CC3)c(N(CCF)S(C)(=O)=O)cc2nn1-c1ccc(C)cn1 [Compound 7, 5-cyclopropyl-6-[(2-fluoroethyl)(methylsulfonyl)amino]-N-methyl-2-(5-methylpyridin-2-yl)-2H-indazole-3-carboxamide]
IC50 [3, 7]: 0.5 to 0.99 µM
EC50 [4, 9]: < 0.1 µM

CNC(=O)c1c2cc(C3CC3)c(N(CCC3(OC)COC3)S(C)(=O)=O)cc2nn1-c1ccc(C)cn1 [Compound 18, 5-cyclopropyl-6-[2-(3-methoxyoxetan-3-yl)ethyl-methylsulfonyl-amino]-N-methyl-2-(5-methyl-2-pyridyl)indazole-3-carboxamide]
EC50 [1]: 0.305 µM
EC50 [2]: 0.031 µM
IC50 [3, 7]: 0.1 to 0.49 µM
IC50 [3, 8]: 0.188 µM
EC50 [4, 9]: < 0.1 µM
EC50 ([4]; read-out: G1b (EC50 μM)): 0.056 µM
CC50 at 3 days [5]: > 50 µM

CNC(=O)c1c2cc(C3CC3)c(N(CCC3(C)COC3)S(C)(=O)=O)cc2nn1-c1ccc(C)cn1 [Compound 11, 5-cyclopropyl-N-methyl-6-{[2-(3-methyloxetan-3-yl)ethyl](methylsulfonyl)amino}-2-(5-methylpyridin-2-yl)-2H-indazole-3-carboxamide]
EC50 [1]: 0.183 µM
EC50 [2]: 0.013 µM
IC50 [3, 7]: 0.1 to 0.49 µM
IC50 [3, 8]: 0.4 µM
solubility at 30 min [6, 10]: 50 to 100 µg/mL (≈ 100 to 201 µM)
solubility at 30 min [6, 11]: 50 to 100 µg/mL (≈ 100 to 201 µM)
EC50 [4, 9]: < 0.1 µM
EC50 ([4]; read-out: G1b (EC50 μM)): 0.028 µM
CC50 at 3 days [5]: > 50 µM

CNC(=O)c1c2cc(C3CC3)c(N(CCC3COC3C)S(C)(=O)=O)cc2nn1-c1ccc(C)cn1 (centres unmarked) [Compound 10, 5-cyclopropyl-N-methyl-6-{[2-(2-methyloxetan-3-yl)ethyl](methylsulfonyl)amino}-2-(5-methylpyridin-2-yl)-2H-indazole-3-carboxamide]
IC50 [3, 7]: 0.5 to 0.99 µM
EC50 [4, 9]: < 0.1 µM

CNC(=O)c1c2cc(C3CC3)c(N(CCC3CN(C(=O)OC(C)(C)C)C3)S(C)(=O)=O)cc2nn1-c1ccc(C)cn1 [Compound 16, tert-butyl 3-[2-[[5-cyclopropyl-3-(methylcarbamoyl)-2-(5-methyl-2-pyridyl)indazol-6-yl]-methylsulfonyl-amino]ethyl]azetidine-1-carboxylate]
IC50 [3, 7]: 1 to 10 µM
EC50 [4, 9]: < 0.1 µM

CNC(=O)c1c2cc(C3CC3)c(N(C)S(C)(=O)=O)cc2nn1-c1cc(C)c(Cl)cn1 [Compound 15, 2-(5-chloro-4-methyl-2-pyridyl)-5-cyclopropyl-N-methyl-6-[methyl(methylsulfonyl)amino]indazole-3-carboxamide]
EC50 [4, 9]: 0.1 to 0.49 µM
